Experimental data as given in patent publication US12514931B2, “Microsphere-drug combination” (UCL Business LTD, priority 2019, dated 2026).
One block for each compound: values may come before it.

Tests used:
[1] = Loading of taxanes onto PLGA TIPS microspheres via antisolvent precipitation (drug loading efficiency, UV 229 nm); format: physicochemical; details: for taxane loaded onto the microspheres from the solution: 0.1% (w/v) pure taxane in ethanol, 5 mg dry PLGA TIPS microspheres, within 60 minutes of initiating mixing
Method: A facile method was developed to load DTX and other taxanes such as paclitaxel and cabazitaxel onto TIPS microspheres via antisolvent precipitation (FIG. 1). 5 mg of PLGA TIPS microspheres were transferred into 20 ml clear Type 1B boroscilicate glass vials and sealed with a butyl injection stopper. 4.5 mL of ultrapure water was added to the vial and vortexed for 10 seconds. 0.5 ml of 0.1% (w/v) taxane in ethanol, or a formulation of docetaxel or paclitaxel matching Taxotere® or Taxol® was added using a 1 mL syringe with a 25G needle through the rubber stopper, when the vial was inverted. The vial was then vortexed for 10 seconds and placed on a roller mixer (IKA® Roller 6 Digital; 60 rpm) at room temperature for predetermined periods (5, 15, 30, 60, 120 minutes).
Drug loading efficiency (DLE) of the taxane, such as DTX, onto the TIPS microspheres at each time-point was calculated according to Equation 1. The amount of free taxane left in the solution was measured by UV spectroscopy at the wavelength of 229 nm using a Nanodrop 2000c spectrophotometer (Thermo Scientific, Waltham, MA, USA).
• 1. Dry TIPS PLGA microspheres (size range of 250-350 μm): Docetaxel loaded onto 5 mg PLGA TIPS microspheres as described directly above. […] An equivalent number of solid PLGA microspheres (size range of 250-350 μm) to the quantity of microspheres in 5 mg of dry TIPS PLGA microspheres were transferred into 20 ml clear Type 1B boroscilicate glass vials and sealed with a butyl injection stopper. […] Drug loading efficiency (DLE) of docetaxel (DTX) onto the TIPS microspheres at each time-point was calculated according to Equation 1. The amount of free docetaxel left in the solution was measured by UV spectroscopy at the wavelength of 229 nm using a Nanodrop 2000c spectrophotometer (Thermo Scientific, Waltham, MA, USA). […]

[2] = Docetaxel release from DTX-TIPS microspheres in dynamic perfusion system; format: physicochemical; details: PBS pH 7.4, 37 C, 0.01 mL/min; over 5 days
Method: Release profile of DTX from the TIPS microspheres was investigated using a dynamic perfusion system to simulate tissue perfusion of the drug-device combination in the physiological milieu when used in clinic following radical prostatectomy. Thus, the perfusion system was placed inside an incubator at 37° C. and physiological simulated medium (phosphate buffed saline (PBS); pH 7.4) was used as perfusate. DTX-loaded microspheres were mixed with 100 μl of 70% (v/v) GranuGel® (Convatec, UK) diluted in ultrapure water and the mixture was placed between two 25 mm circular filter papers (Whatman® qualitative cellulose filter paper, Grade 1), where their positions were held by a Swin-Lok™ plastic membrane filter holder. A hypodermic needle (18G×40 mm) connecting the outlet of the filter holder, was inserted through the lid of a 50 ml polypropylene container to collect the perfusate. PBS was pumped through the filter holder by a peristaltic pump (Harvard Apparatus) at a flow rate of 0.01 mL/min. […]
The amount of DTX released in the perfusate was determined using a predetermined standard curve. At each measurement, the concentration of DTX in the release medium collected in the polypropylene container was determined by UV spectroscopy at 229 nm as described above, to calculate the cumulative DTX release according to Equation 2.

PC3 cells = assay: Colony formation assay with perfusate from DTX-TIPS microspheres; format: cell-based, human; details: DTX released into perfusate during the first 5 days
Method: PC3 cells were maintained in Ham's F12-K medium (Kaighn's modification) (Invitrogen, 21127-022) supplemented with 10% (v/v) foetal bovine serum (FBS) and 1% antibiotics (referred to henceforth as complete medium). Cells were cultured at 37° C. under 5% CO2 atmosphere in a humidified incubator.
PC3 cells cultured in 6 well plates were incubated for 48 hours in 2 ml of perfusate (conditioned complete culture medium) collected from DTX-TIPS microspheres loaded into the perfusion system, as outlined above. Colony formation assays were performed as previously described (Franken NAP, Rodermond HM, Stap J, Haveman J, van Bree C. Clonogenic assay of cells in vitro. Nat Protoc. 2006; 1(5):2315-2319). […] The colonies were counted in ImageJ using the ‘Colony Counter’ plug in (processing parameters: size 100-30,000; circularity 0.5-1) (https://imagej.nih.gov/ij/plugins/colony-counter.html).
Plating efficiency (PE) was estimated by dividing the number of colonies counted by the number of cells initially seeded. […]

PC3 xenograft tumour = assay: In vivo tumour growth inhibitory activity, PC3 xenograft; design: species or system NSG immunodeficient mice
Method: Female NSG™ immunodeficient mice (NOD.Cg-PrkdscidIl2rgtm1Wjl/SzJ; Charles River), aged 6-7 weeks and 18-20 g in body weight, were acclimatised for 1 week prior to injection of tumour cells. PC3 cells (5.0×10^6 cells in 100 μl phosphate buffered saline [PBS]) were injected subcutaneously into the right flank of each mouse. The dimensions of tumour were measured three times per week using digital callipers and the tumour volume calculated using the following formula: […]

[3] = Measurement of DTX in plasma after administration (LC-MS/MS); format: in vivo, BALB/cAnNCrl mice
Method: Docetaxel-loaded TIPS microspheres were prepared via anti-solvent precipitation, as outlined above. […] For measurement of circulating DTX in plasma, blood samples were collected via the tail vein at day 0 (pre-dose), and days 1, 2, 3, 7, 10 then every 5 days until day 35 immediately before the end of in life phase. Blood samples were collected into 10 μl capillaries containing sodium heparin (Hirschmann, Eberstadt, Germany) and placed in wells of a 2 ml deep well plate that was stored at −80° C. until extraction.
On the day of the extraction, calibration curve and sample plates were thawed. 125 μl of water:acetonitrile containing 0.4% […] was added to blanks, calibration curve and QCs. 125 μl of 70:30 water:acetonitrile containing 0.4% DMSO was added to all samples. 40 μl of each […]:water:acetonitrile sample was taken and protein precipitated with 120 μl acetonitrile containing DTX-D9 (25 nM). Samples were mixed and centrifuged. Supernatant was taken and diluted 40:60 with 0.5% sodium acetate (20 μM) in ammonium acetate (10 mM, pH5).
Liquid chromatography-mass spectrometry analysis was carried out with a Waters (Milford, MA) H-class Acquity solvent manager and sample manager on a Waters Acquity HSS PFP column (1.8 μm, 50 mm×2.1 mm id) with a gradient consisting of 10 mM ammonium acetate (pH 5.0) and acetonitrile mobile phases. The flow rate was 0.6 ml/min and the run time 5.6 minutes. Analyte and internal standard were ionised using electrospray ionisation in positive ion mode. Detection of analytes was via tandem mass spectrometry (MS/MS) using a Waters Xevo TQ-S mass spectrometer in the multiple reaction monitoring (MRM) mode. For DTX and DTX-D9 (IS), the transitions m/z 830.4-248.1/304.2 and m/z 839.4-313.0 were monitored respectively. The calibration curve was linear over the concentration range […].

[4] = DTX concentration in tissues from explanted organs (LC-MS/MS); format: in vivo, NSG mice; details: NSG, mouse, intravenous, 10 mg/kg; for concentration at 1 day: day 1 post-administration; for concentration at 10 day: day 10 post-administration; for concentration at 35 day: day 35 post-administration
Method: At the end of the in-life phase (day 1, 10 and 35 post-treatment) the mice were euthanised by overdose of CO2, followed by cervical dislocation and organs (heart, liver, kidneys, lungs and spleen) were collected, weighed and immediately frozen in liquid nitrogen before storage at −80° C. until further analysis. Evaluation of docetaxel concentrations was carried out by liquid chromatography tandem mass spectrometry in tissue following homogenisation in 3 ml/g (spleens 5 ml/g) 10 mM PBS using a Precellys 24 homogeniser (Bertin technologies, Montigny-le-Bretonneux, France). 45 μl tissue homogenate was spiked with 5 μl DMSO, samples were mixed and protein precipitated with 150 μl acetonitrile containing DTX-D9 as internal standard (25 nM). Samples were mixed and centrifuged. Supernatant was taken and diluted 40:60 with 0.5% sodium acetate (20 μM) in ammonium acetate (10 mM, pH 5). Blanks, calibration curve and QCs were prepared as above using tissues obtained from the same strain of mice (NSG) and spiked with DMSO, working calibration standard and working QC respectively. Blanks consisted of protein precipitated with acetonitrile alone, blank+, standards and QCs were protein precipitated with acetonitrile containing DTX-D9.

taxane loaded onto the microspheres from the solution [1]: Approximately 80% | time of maximum loading onto the TIPS particles ([1]; room temperature, no heating or cooling steps): ≤ 60 min | cumulative release of total DTX loaded [2]: approximately 95% | plasma DTX level, I.V. DTX relative to DTX-TIPS group ([3]; 1 hour post-administration): 102 fold | plasma DTX level, I.V. DTX relative to DTX-TIPS group ([3]; 24 hour post-administration): 8 fold | concentration at 1 day ([4]; Heart): 340 ± 42.9 nM | concentration at 10 day ([4]; Heart): 90.1 ± 19.4 nM | concentration at 35 day ([4]; Heart): 0.97 ± 2.37 nM | concentration at 1 day ([4]; Kidney): 115 ± 22.4 nM | concentration at 10 day ([4]; Kidney): 115 ± 22.4 nM | concentration at 35 day ([4]; Kidney): 1.17 ± 2.86 nM | concentration at 1 day ([4]; Liver): 87.3 ± 7.85 nM | concentration at 10 day ([4]; Liver): 27 ± 11.9 nM | concentration at 35 day ([4]; Liver): 0 nM | concentration at 1 day ([4]; Lung): 641 ± 92.4 nM | concentration at 10 day ([4]; Lung): 256 ± 35.5 nM | concentration at 35 day ([4]; Lung): 13.8 ± 16.2 nM | concentration at 1 day ([4]; Spleen): 14.1 ± 11.9 nM | concentration at 10 day ([4]; Spleen): 35.3 ± 51.9 nM | concentration at 35 day ([4]; Spleen): 0 nM
SMILES: CC(=O)O[C@@]12CO[C@@H]1C[C@H](O)[C@@]1(C)C(=O)[C@H](O)C3=C(C)[C@@H](OC(=O)[C@H](O)[C@@H](NC(=O)OC(C)(C)C)c4ccccc4)C[C@@](O)([C@@H](OC(=O)c4ccccc4)[C@H]21)C3(C)C [docetaxel, Docetaxel]
toxicity against the PC3 cells in the colony forming assay (PC3 cells): 100% | tumour volume over the study period (PC3 xenograft tumour; Example 8, compared with saline or control microsphere group): Tumour growth inhibition was most apparent | tumour volume / tumour growth inhibition (PC3 xenograft tumour; Example 9, DTX-TIPS compared with I.V. DTX, until day 21): did not increase | DTX in plasma ([3]; 48 hours, 72 hours, day 10 and day 15, I.V. 10 mg/kg once weekly for three weeks): detectable levels of DTX remaining in the plasma

taxane loaded onto the microspheres from the solution [1]: about 60%
SMILES: CO[C@H]1C(=O)[C@]2(C)[C@@H](OC)C[C@H]3OC[C@@]3(OC(C)=O)[C@H]2[C@H](OC(=O)c2ccccc2)[C@]2(O)C[C@H](OC(=O)[C@H](O)[C@@H](NC(=O)OC(C)(C)C)c3ccccc3)C(C)=C1C2(C)C [cabazitaxel]
